Tests used:
CCR5 = target: T1, CCR5 (Homo sapiens, UniProt P51681); assay: Calcium mobilization assay (RANTES-induced, Fluo-4 AM); format: cell-based; conditions: for IC50: CHO cells stably expressing CCR5 and Gα16, RANTES 30 nM, read-out: IC50 (antagonistic activity against CCR5); for effect of structural change on potency relative to compound 2: SAR statement from IC50 values
T1 construct: expressed in transfected cells
Procedure: For the primary assay, the percent inhibitory rates of the compounds 1, 2 and 2a-l at 1 μM were measured. Except compounds 2a and 2c, the other twelve compounds were remarkably antagonist of CCR5 activity. Therefore, we determined their IC50 values (Table 1).
CHO cells stably expressing CCR5 and Gα16 were loaded with 2 μmol/L Fluo-4 AM in Hanks balanced salt solution (HBSS, containing KCl 5.4 mM, Na2HPO4 0.3 mM, KH2PO4 0.4 mM, NaHCO3 4.2 mM, CaCl2 1.3 mM, MgCl2 0.5 mM, Mg2SO4 0.6 mM, NaCl 137 mM, BSA 5 g/L, Glucose 5.6 mM, Sulfinpyrazone 250 μM, pH 7.4) at 37 °C for 45 minutes. After the cells being rinsed with the reaction buffer, 50 μL HBSS containing known antagonists (positive control), compounds of interest or DMSO (negative control, final concentration 1%) were added. After incubation at room temperature for 10 minutes, 25 μL RANTES (final concentration 30 nM) was dispensed into the well using a FlexStation II micro-plate reader (Molecular Devices, Sunnyvale, CA, USA) and intracellular calcium change was recorded with an excitation wavelength of 485 nm and emission wavelength of 525 nm. The half maximal inhibitory concentrations (IC50s) of compounds were determined with GraphPad Prism software by constructing their dose-response curves.

T1 sequence (P51681 whole entry): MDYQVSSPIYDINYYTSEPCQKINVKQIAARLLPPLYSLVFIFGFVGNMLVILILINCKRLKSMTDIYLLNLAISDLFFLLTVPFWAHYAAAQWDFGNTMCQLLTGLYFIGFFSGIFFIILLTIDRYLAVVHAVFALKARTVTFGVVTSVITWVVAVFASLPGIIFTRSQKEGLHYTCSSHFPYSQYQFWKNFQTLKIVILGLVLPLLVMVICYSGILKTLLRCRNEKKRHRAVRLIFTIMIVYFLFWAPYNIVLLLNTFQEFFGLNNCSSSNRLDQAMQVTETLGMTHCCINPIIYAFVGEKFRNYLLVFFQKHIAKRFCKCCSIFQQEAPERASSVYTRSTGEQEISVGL

| IC50 (CCR5) [nM] | fold change of IC50 compared to compound 1 (CCR5; ratio of IC50 values, vs compound 1) [fold] | melting point [°C] | effect of structural change on potency relative to compound 2 (CCR5) | fold increase in potency compared with compound 2 (CCR5; ratio of IC50 values, vs compound 2) [fold] | Compound |
| --- | --- | --- | --- | --- | --- |
| 692 | 3 | – | – | – | O=C(N[C@@H](CCN1CCN(c2ccnc3cc(Cl)ccc23)CC1)c1ccccc1)C1CCC(F)(F)CC1 [Compound 2, N-((S)-3-(4-(7-Chloroquinolin-4-yl)piperazin-1-yl)-1-phenylpropyl)-4,4-difluorocyclohexanecarbox-amide] |
| 2660 | – | 153 to 158 | – | – | O=C(N[C@@H](CCN1CCN(c2ccnc3cc(Cl)ccc23)CC1)c1ccccc1)C1CCCCC1 [Compound 2b, N-((S)-3-(4-(7-Chloroquinolin-4-yl)piperazin-1-yl)-1-phenylpropyl)cyclohexanecarboxamide] |
| > 10000 | – | 69 to 72 | – | – | O=C(Cc1ccccc1)N[C@@H](CCN1CCN(c2ccnc3cc(Cl)ccc23)CC1)c1ccccc1 [Compound 2e, N-((S)-3-(4-(7-Chloroquinolin-4-yl)piperazin-1-yl)-1-phenylpropyl)-2-phenylacetamide] |
| > 10000 | – | 132 to 136 | decrease or loss of potency | – | Cc1ccc(S(=O)(=O)N[C@@H](CCN2CCN(c3ccnc4cc(Cl)ccc34)CC2)c2ccccc2)cc1 [Compound 2f, N-((S)-3-(4-(7-Chloroquinolin-4-yl)piperazin-1-yl)-1-phenylpropyl)-4-methylbenzenesulfonamide] |
| > 1000 | – | – | – | – | O=C(N[C@@H](CCN1CCN(c2ncccn2)CC1)c1ccccc1)C1CCC(F)(F)CC1 [Compound 2g, N-((S)-3-(4-(Pyrimidin-2-yl)piperazin-1-yl)-1-phenylpropyl)-4,4-difluorocyclohexanecarboxamide] |

Further lines, the molecule ahead of its results:

| Compound | IC50 (CCR5) [nM] | fold change of IC50 compared to compound 1 (CCR5; ratio of IC50 values, vs compound 1) [fold] | melting point [°C] | effect of structural change on potency relative to compound 2 (CCR5) | fold increase in potency compared with compound 2 (CCR5; ratio of IC50 values, vs compound 2) [fold] |
| --- | --- | --- | --- | --- | --- |
| O=C(CCC(=O)N1CCN(c2ccnc3cc(Cl)ccc23)CC1)N1CCN(c2ccnc3cc(Cl)ccc23)CC1 [Compound 1, 1,4-bis(4-(7-chloroquinolin-4-yl)piperazin-1-yl)butane-1,4-dione] | 2000 | – | – | – | – |
| O=C(N[C@@H](CCN1CCN(c2ccnc3cc(Cl)ccc23)CC1)c1ccccc1)c1ccc(F)cc1 [Compound 2a, N-((S)-3-(4-(7-Chloroquinolin-4-yl)piperazin-1-yl)-1-phenylpropyl)-4-fluorobenzamide] | – | – | 77 to 79 | – | – |
| O=C1CCC(C(=O)N[C@@H](CCN2CCN(c3ccnc4cc(Cl)ccc34)CC2)c2ccccc2)CC1 [Compound 2d, N-((S)-3-(4-(7-Chloroquinolin-4-yl)piperazin-1-yl)-1-phenylpropyl)-4-oxocyclohexanecarboxamide] | > 1000 | – | 56 to 59 | – | – |
| O=C(N[C@@H](CCN1CCN(c2ncnc3[nH]cnc23)CC1)c1ccccc1)C1CCC(F)(F)CC1 [Compound 2h, N-((S)-3-(4-(9H-Purin-6-yl)piperazin-1-yl)-1-phenylpropyl)-4,4-difluorocyclohexanecarboxamide] | > 10000 | – | – | – | – |
| O=C(N[C@@H](CCN1CCN(c2ccncc2)CC1)c1ccccc1)C1CCC(F)(F)CC1 [Compound 2i, N-((S)-3-(4-(pyridin-4-yl)piperazin-1-yl)-1-phenylpropyl)-4,4-difluorocyclohexanecarboxamide] | > 10000 | – | – | – | – |
| O=C(N[C@@H](CCN1CCN(c2ccc3ccccc3n2)CC1)c1ccccc1)C1CCC(F)(F)CC1 [Compound 2j, N-((S)-3-(4-(Quinolin-2-yl)piperazin-1-yl)-1-phenylpropyl)-4,4-difluorocyclohexanecarboxamide] | 233 | – | 50 to 53 | – | 3 |
| O=C(NC(CCN1CCN(c2ccnc3cc(Cl)ccc23)CC1)c1ccccc1)C1CCC(F)(F)CC1 (centres unmarked) [Compound 2k, N-(3-(4-(7-Chloroquinolin-4-yl)piperazin-1-yl)-1-phenylpropyl)-4,4-difluorocyclohexanecarboxamide] | 669 | – | – | no effect on potency | – |
| O=C(C1CCC(F)(F)CC1)N1CCN(c2ccnc3cc(Cl)ccc23)CC1 [Compound 2l, (4-(7-chloroquinolin-4-yl)piperazin-1-yl)(4,4-difluorocyclohexyl)methanone] | > 1000 | – | – | nearly leads to a loss of potency | – |
